US20040156869A1, “2-substituted quinazolin-4-ylamine analogues” (Neurogen Corporation, priority 2002, published 2004)

Target: human capsaicin receptor (VR1) (Homo sapiens, UniProt Q8NER1)
Assay: Capsaicin receptor binding assay ([3H]RTX competition, VR1-transfected HEK293 membranes)

Sequence of human capsaicin receptor (VR1) (Q8NER1 whole entry): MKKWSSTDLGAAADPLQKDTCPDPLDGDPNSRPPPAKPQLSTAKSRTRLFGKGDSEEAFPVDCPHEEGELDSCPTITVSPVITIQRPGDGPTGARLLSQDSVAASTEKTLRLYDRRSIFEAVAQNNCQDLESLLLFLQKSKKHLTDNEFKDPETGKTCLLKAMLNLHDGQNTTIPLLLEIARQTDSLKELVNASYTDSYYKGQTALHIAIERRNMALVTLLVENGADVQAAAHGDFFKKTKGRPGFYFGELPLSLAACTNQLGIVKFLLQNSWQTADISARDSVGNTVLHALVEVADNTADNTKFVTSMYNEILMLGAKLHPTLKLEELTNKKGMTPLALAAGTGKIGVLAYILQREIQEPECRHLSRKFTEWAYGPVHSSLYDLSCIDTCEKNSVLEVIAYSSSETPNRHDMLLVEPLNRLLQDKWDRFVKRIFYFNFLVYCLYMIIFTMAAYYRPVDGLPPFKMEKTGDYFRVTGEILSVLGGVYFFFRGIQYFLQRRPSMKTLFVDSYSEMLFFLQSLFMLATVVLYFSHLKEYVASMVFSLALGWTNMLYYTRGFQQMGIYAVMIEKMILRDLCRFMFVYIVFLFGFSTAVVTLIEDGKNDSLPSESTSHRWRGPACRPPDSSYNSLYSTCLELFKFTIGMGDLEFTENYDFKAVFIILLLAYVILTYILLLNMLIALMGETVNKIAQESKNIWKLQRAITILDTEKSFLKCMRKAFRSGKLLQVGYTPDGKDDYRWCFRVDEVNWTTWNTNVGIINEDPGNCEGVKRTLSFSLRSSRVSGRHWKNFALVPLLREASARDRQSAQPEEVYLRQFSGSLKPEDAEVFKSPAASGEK

Compound	Ki [nM]
CN1CCN(Cc2nc(Nc3ccc(C(F)(F)F)cn3)c3ccc(-c4ncccc4C(F)(F)F)cc3n2)CC1 [Compound 522, [2-(4-Methyl-piperazin-1-ylmethyl)-7-(3-trifluoromethyl-pyridin-2-yl)-quinazolin-4-yl]-(5-trifluoromethyl-pyridin-2-yl)-amine]	< 1000
CN(C)CCNC(=O)c1nc(Nc2ccc(C(F)(F)F)cc2)c2ccc(-c3ncccc3C(F)(F)F)nc2n1 [Compound 435, 4-(4-Trifluoromethyl-phenylamino)-7-(3-trifluoromethyl-pyridin-2-yl)-pyrido[2,3-d]pyrimidine-2-carboxylic acid (2-dimethylamino-ethyl)-amide]	< 1000
COCc1cc(Nc2ccc(F)cc2)c2ccc(-c3ncccc3C(F)(F)F)nc2n1 [Compound 303, (4-Fluoro-phenyl)-[2-methoxymethyl-7-(3-trifluoromethyl-pyridin-2-yl)-[1,8]naphthyridin-4-yl]-amine]	< 1000
CCCc1ccc(Nc2nc(COCC(C)C)nc3nc(-c4ncccc4Cl)ccc23)cc1 [Compound 266, [7-(3-Chloro-pyridin-2-yl)-2-isobutoxymethyl-pyrido[2,3-d]pyrimidin-4-yl]-(4-propyl-phenyl)-amine]	< 1000
Cc1cc(Nc2nc(COCC(C)C)nc3nc(-c4ncccc4C(F)(F)F)ccc23)ccc1Cl [Compound 274, (4-Chloro-3-methyl-phenyl)-[2-isobutoxymethyl-7-(3-trifluoromethyl-pyridin-2-yl)-pyrido[2,3-d]pyrimidin-4-yl]-amine]	< 1000
COCCOCc1nc(Nc2ccc(C(C)C)cc2)c2ccc(-c3ncccc3Cl)nc2n1 [Compound 77, [7-(3-Chloro-pyridin-2-yl)-2-(2-methoxy-ethoxymethyl)-pyrido[2,3-d]pyrimidin-4-yl]-(4-isopropyl-phenyl)-amine]	< 1000
CC(C)N(C)Cc1nc(Nc2ccc(S(=O)(=O)N3CCOCC3)cc2)c2ccc(-c3ncccc3C(F)(F)F)cc2n1 [Compound 723, [2-[(Isopropyl-methyl-amino)-methyl]-7-(3-trifluoromethyl-pyridin-2-yl)-quinazolin-4-yl]-[4-(morpholine-4-sulfonyl)-phenyl]-amine]	< 1000
CC(C)COCc1cc(Nc2ccc(C(F)(F)F)cn2)c2ccc(-c3ncccc3C(F)(F)F)nc2n1 [Compound 314, [2-Isobutoxymethyl-7-(3-trifluoromethyl-pyridin-2-yl)-[1,8]naphthyridin-4-yl]-(5-trifluoromethyl-pyridin-2-yl)-amine]	< 1000
C[C@@H]1CN(Cc2nc(Nc3ccc(Cl)cc3)c3ccc(-c4ncccc4Cl)cc3n2)C[C@@H](C)O1 [Compound 624, (R,R)-(4-Chloro-phenyl)-[7-(3-chloro-pyridin-2-yl)-2-(2,6-dimethyl-morpholin-4-ylmethyl)-quinazolin-4-yl]-amine]	< 1000
OCC1CCN(Cc2nc(Nc3ccc(C(F)(F)F)cc3)c3ccc(-c4ncccc4C(F)(F)F)cc3n2)CC1 [Compound 495, {1-[4-(4-Trifluoromethyl-phenylamino)-7-(3-trifluoromethyl-pyridin-2-yl)-quinazolin-2-ylmethyl]-piperidin-4-yl}-methanol]	< 1000
O=S1(=O)CCN(Cc2nc(Nc3ccc(C(F)(F)F)nc3)c3ccc(-c4ncccc4C(F)(F)F)cc3n2)CC1 [Compound 553, [2-(1,1-dioxo-1λ^6-thiomorpholin-4-ylmethyl)-7-(3-trifluoromethyl-pyridin-2-yl)-quinazolin-4-yl]-(6-trifluoromethyl-pyridin-3-yl)-amine]	< 1000
CC1c2ccccc2CCN1Cc1nc(Nc2ccc(C(F)(F)F)nc2)c2ccc(-c3ncccc3C(F)(F)F)cc2n1 (centres unmarked) [Compound 351, [2-(1-Methyl-3,4-dihydro-1H-isoquinolin-2-ylmethyl)-7-(3-trifluoromethyl-pyridin-2-yl)-quinazolin-4-yl]-(6-trifluoromethyl-pyridin-3-yl)-amine]	< 1000
CCOCc1nc(Nc2ccc(C(F)(F)F)cc2)c2ccc(-c3ncccc3Cl)cc2n1 [Compound 81, [7-(3-Chloro-pyridin-2-yl)-2-ethoxymethyl-quinazolin-4-yl]-(4-trifluoromethyl-phenyl)-amine]	< 1000
CCC1CCCCN1Cc1nc(Nc2ccc(C(F)(F)F)nc2)c2ccc(-c3ncccc3C(F)(F)F)cc2n1 (centres unmarked) [Compound 382, [2-(2-Ethyl-piperidin-1-ylmethyl)-7-(3-trifluoromethyl-pyridin-2-yl)-quinazolin-4-yl]-(6-trifluoromethyl-pyridin-3-yl)-amine]	< 1000
CC(=O)C(C)(C)c1ccc(Nc2nc(COCC(C)C)nc3nc(-c4ncccc4Cl)ccc23)cc1 [Compound 210, 3-{4-[7-(3-Chloro-pyridin-2-yl)-2-isobutoxymethyl-pyrido[2,3-d]pyrimidin-4-ylamino]-phenyl}-3-methyl-butan-2-one]	< 1000
OCCC1CCN(CCCc2nc(Nc3ccc(C(F)(F)F)cc3)c3ccc(-c4ncccc4C(F)(F)F)cc3n2)CC1 [Compound 568, 2-(1-{3-[4-(4-Trifluoromethyl-phenylamino)-7-(3-trifluoromethyl-pyridin-2-yl)-quinazolin-2-yl]-propyl}-piperidin-4-yl)-ethanol]	< 1000
CCCCN(CC)CCc1nc(Nc2ccc(C(F)(F)F)cc2)c2ccc(-c3ncccc3C(F)(F)F)cc2n1 [Compound 417, [2-[(Butyl-ethyl-amino)-ethyl]-7-(3-trifluoromethyl-pyridin-2-yl)-quinazolin-4-yl]-(4-trifluoromethyl-phenyl)-amine]	< 1000
CCCCCN(CCCCC)Cc1nc(Nc2ccc(C(F)(F)F)nc2)c2ccc(-c3ncccc3C(F)(F)F)cc2n1 [Compound 385, [2-Dipentylaminomethyl-7-(3-trifluoromethyl-pyridin-2-yl)-quinazolin-4-yl]-(6-trifluoromethyl-pyridin-3-yl)-amine]	< 1000
CC(C)COCc1nc(Nc2ccc(C(F)F)cc2)c2ccc(-c3ncccc3C(F)(F)F)nc2n1 [Compound 242, (4-Difluoromethyl-phenyl)-[2-isobutoxymethyl-7-(3-trifluoromethyl-pyridin-2-yl)-pyrido[2,3-d]pyrimidin-4-yl]-amine]	< 1000
FC(F)(F)c1ccc(Nc2nc(CCN(Cc3ccccc3)C3CC3)nc3cc(-c4ncccc4C(F)(F)F)ccc23)cc1 [Compound 397, [2-[2-(Benzyl-cyclopropyl-amino)-ethyl]-7-(3-trifluoromethyl-pyridin-2-yl)-quinazolin-4-yl]-(4-trifluoromethyl-phenyl)-amine]	< 1000
OC1CCN(Cc2nc(Nc3ccc(C(F)(F)F)nc3)c3ccc(-c4ncccc4C(F)(F)F)cc3n2)CC1 [Compound 484, 1-[7-(3-Trifluoromethyl-pyridin-2-yl)-4-(6-trifluoromethyl-pyridin-3-ylamino)-quinazolin-2-ylmethyl]-piperidin-4-ol]	< 1000

Other lines, results leading:

Ki [nM]	Compound
< 1000	CC(C)c1ccc(Nc2nc(CN3C[C@@H](C)O[C@@H](C)C3)nc3cc(-c4ncccc4C(F)(F)F)cnc23)cc1 [Compound 613, [2-(2,6-Dimethyl-morpholin-4-ylmethyl)-7-(3-trifluoromethyl-pyridin-2-yl)-pyrido[3,2-d]pyrimidin-4-yl]-(4-isopropyl-phenyl)-amine (cis)]
< 1000	OC1CCCN(Cc2nc(Nc3ccc(C(F)(F)F)cc3)c3ccc(-c4ncccc4C(F)(F)F)cc3n2)C1 (centres unmarked) [Compound 499, 1-[4-(4-Trifluoromethyl-phenylamino)-7-(3-trifluoromethyl-pyridin-2-yl)-quinazolin-2-ylmethyl]-piperidin-3-ol]
< 1000	CCN(CC)CCCOCc1nc(Nc2ccc(C(C)(C)C)cc2)c2ccc(-c3ncccc3C(F)(F)F)cc2n1 [Compound 117, (4-tert-Butyl-phenyl)-[2-(3-diethylamino-propoxymethyl)-7-(3-trifluoromethyl-pyridin-2-yl)-quinazolin-4-yl]-amine]
< 1000	C[C@@H]1CN(Cc2nc(Nc3ccc(C(F)(F)F)cc3)c3ccc(-c4ncccc4C(F)(F)F)cc3n2)CCO1 [Compound 683, (R)-[2-(2-Methyl-morpholin-4-ylmethyl)-7-(3-trifluoromethyl-pyridin-2-yl)-quinazolin-4-yl]-(4-trifluoromethyl-phenyl)-amine]
< 1000	OC1CCCN(Cc2nc(Nc3ccc(C(F)(F)F)nc3)c3ccc(-c4ncccc4C(F)(F)F)cc3n2)C1 (centres unmarked) [Compound 486, 1-[7-(3-Trifluoromethyl-pyridin-2-yl)-4-(6-trifluoromethyl-pyridin-3-ylamino)-quinazolin-2-ylmethyl]-piperidin-3-ol]
< 1000	CC1CC(C)CN(Cc2nc(Nc3ccc(C(F)(F)F)cc3)c3ccc(-c4ncccc4C(F)(F)F)cc3n2)C1 (centres unmarked) [Compound 552, [2-(3,5-Dimethyl-piperidin-1-ylmethyl)-7-(3-trifluoromethyl-pyridin-2-yl)-quinazolin-4-yl]-(4-trifluoromethyl-phenyl)-amine]
< 1000	COCc1nc(Nc2ccc(C(C)=O)cc2)c2ccc(-c3ncccc3C(F)(F)F)nc2n1 [Compound 289, 1-{4-[2-Methoxymethyl-7-(3-trifluoromethyl-pyridin-2-yl)-pyrido[2,3-d]pyrimidin-4-ylamino]-phenyl}-ethanone]
< 1000	COCc1nc(Nc2ccc(C(F)(F)F)cc2)c2ccc(-c3ncccc3C)nc2n1 [Compound 88, [2-Methoxymethyl-7-(3-methyl-pyridin-2-yl)-pyrido[2,3-d]pyrimidin-4-yl]-(4-trifluoromethyl-phenyl)-amine]
< 1000	CC(C)(C)NS(=O)(=O)c1ccc(Nc2nc(COCc3ccccc3)nc3cc(-c4ncccc4C(F)(F)F)ccc23)cc1 [Compound 38, 4-[2-Benzyloxymethyl-7-(3-trifluoromethyl-pyridin-2-yl)-quinazolin-4-ylamino]-N-tert-butyl-benzenesulfonamide]
< 1000	COCc1nc(Nc2ccc(C(C)C)cc2)c2ccc(-c3ncccc3Cl)cc2n1 [Compound 69, [7-(3-Chloro-pyridin-2-yl)-2-methoxymethyl-quinazolin-4-yl]-(4-isopropyl-phenyl)-amine]
< 1000	CC(=O)N1CCC(c2nc(Nc3ccc(C(F)(F)F)cc3)c3ccc(-c4ncccc4C(F)(F)F)cc3n2)CC1 [Compound 693, 1-{4-[4-(4-Trifluoromethyl-phenylamino)-7-(3-trifluoromethyl-pyridin-2-yl)-quinazolin-2-yl]-piperidin-1-yl}-ethanone]
